Measurements reported in ChEMBL document CHEMBL1201862, “PubChem BioAssay data set” (2004).
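96-well plates; 48 h exposure; 5 concentrations. Endpoints by linear interpolation between flanking doses. Not reached: highest tested concentration assigned. Abbreviation: GI50, concentration required for 50% inhibition of growth.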 Active and inactive are the calls of the source. No stated cut-off is given here; in the data, active = GI50 up to about 1.1 µM and inactive = higher. Where a SMILES comes first, the peptide text is derived from it. The star is where a group is joined. Boc = CC(C)(C)OC(=O)*; Bn = c1ccc(C*)cc1

What was measured:
Test in all cases: NCI tumour cell line growth inhibition, 48 h
SR = test system: SR
SK-MEL-5 = test system: SK-MEL-5
CAKI-1 = test system: CAKI-1
RXF 393 = test system: RXF 393
MDA-MB-231 = test system: MDA-MB-231
SF-539 = test system: SF-539
OVCAR-8 = test system: OVCAR-8
HOP-92 = test system: HOP-92
SK-MEL-28 = test system: SK-MEL-28
SN12C = test system: SN12C
786-0 = test system: 786-0
SNB-75 = test system: SNB-75
MDA-N = test system: MDA-N
LOX IMVI = test system: LOX IMVI
PC-3 = test system: PC-3
IGROV-1 = test system: IGROV-1
MCF7 = test system: MCF7
NCI-H23 = test system: NCI-H23
HCC 2998 = test system: HCC 2998

Measured: GI50

Cn1c(N/N=C/c2ccc(Cl)cc2)nc(-c2ccc(Cl)cc2)c(C#N)c1=O
inactive: SR 2.26 µM | SK-MEL-5 45.1 µM | CAKI-1 47 µM | RXF 393 22.8 µM | MDA-MB-231 22.4 µM | SF-539 21.8 µM | OVCAR-8 14.6 µM | HOP-92 22.3 µM | SK-MEL-28 37.8 µM | SN12C 44.1 µM | 786-0 15.3 µM | SNB-75 25.3 µM | MDA-N 53.2 µM | LOX IMVI 25.2 µM | PC-3 26.8 µM | IGROV-1 6.73 µM | MCF7 21.1 µM | NCI-H23 18.7 µM

O=C(Nn1c(-c2ccccc2)nc2ccccc2c1=O)c1ccc(Cl)cc1
inactive: SR 85.5 µM | SK-MEL-5 23.4 µM | RXF 393 > 100 µM | MDA-MB-231 > 100 µM | SF-539 > 100 µM | OVCAR-8 > 100 µM | HOP-92 75.3 µM | SK-MEL-28 > 100 µM | SN12C > 100 µM | 786-0 > 100 µM | SNB-75 27.1 µM | MDA-N > 100 µM | LOX IMVI > 100 µM | PC-3 66.4 µM | IGROV-1 > 100 µM | HCC 2998 > 100 µM | MCF7 > 100 µM | NCI-H23 95.1 µM

CC1=C[C@H](C[C@]2(C)c3c(c4c(C)cccc4oc3=O)O[C@@H]2C)OC1=O
inactive: SR 22.4 µM | SK-MEL-5 > 100 µM | CAKI-1 > 100 µM | MDA-MB-231 40.2 µM | SF-539 > 100 µM | OVCAR-8 68.1 µM | SK-MEL-28 > 10 µM | SN12C 54.8 µM | 786-0 22.8 µM | SNB-75 > 100 µM | MDA-N 36.6 µM | LOX IMVI 34.3 µM | PC-3 > 100 µM | IGROV-1 > 100 µM | HCC 2998 > 100 µM | MCF7 52.6 µM | NCI-H23 65.5 µM

Nn1c(-c2ccccc2)n[nH]c1=O
inactive: SR > 100 µM | SK-MEL-5 > 100 µM | CAKI-1 > 100 µM | MDA-MB-231 > 100 µM | SF-539 > 100 µM | OVCAR-8 > 100 µM | HOP-92 > 100 µM | SK-MEL-28 > 100 µM | SN12C > 100 µM | 786-0 > 100 µM | SNB-75 > 100 µM | MDA-N > 100 µM | LOX IMVI > 100 µM | PC-3 > 100 µM | IGROV-1 > 100 µM | HCC 2998 > 100 µM | MCF7 > 100 µM | NCI-H23 > 100 µM

COC(=O)C(CC(C)C)NC(=O)CNC(=O)C(Cc1ccc(OCc2ccccc2)cc1)NC(=O)C(COCc1ccccc1)NC(=O)OC(C)(C)C (centres undefined) (Boc-S(Bn)Y(Bn)GL-OMe; configuration not given here)
inactive: SR > 100 µM | SK-MEL-5 > 100 µM | CAKI-1 > 100 µM | RXF 393 > 100 µM | MDA-MB-231 > 100 µM | SF-539 > 100 µM | OVCAR-8 > 100 µM | HOP-92 > 100 µM | SK-MEL-28 > 100 µM | SN12C > 100 µM | 786-0 > 100 µM | SNB-75 > 100 µM | MDA-N > 100 µM | LOX IMVI 58.5 µM | PC-3 > 100 µM | IGROV-1 > 100 µM | MCF7 > 100 µM | NCI-H23 > 100 µM

[N-]=[N+]=Nc1c([N+](=O)[O-])c(=O)n2c3c(cccc13)CCC2
inactive: SR 2.27 µM | SK-MEL-5 16.7 µM | CAKI-1 13.2 µM | MDA-MB-231 10.6 µM | SF-539 23.2 µM | OVCAR-8 17.3 µM | HOP-92 14 µM | SK-MEL-28 5.62 µM | SN12C 9.77 µM | 786-0 17.1 µM | SNB-75 19.4 µM | MDA-N 14.4 µM | LOX IMVI 14.4 µM | PC-3 16.9 µM | IGROV-1 20.8 µM | HCC 2998 19.1 µM | MCF7 11 µM | NCI-H23 16.1 µM

Cc1ccc(S(=O)(=O)NC(=O)Nc2c(S(N)(=O)=O)cc(S(N)(=O)=O)c(Cl)c2Cl)cc1
inactive: SR > 100 µM | SK-MEL-5 > 100 µM | CAKI-1 > 100 µM | MDA-MB-231 > 100 µM | SF-539 > 100 µM | OVCAR-8 > 100 µM | HOP-92 > 100 µM | SK-MEL-28 > 100 µM | SN12C > 100 µM | 786-0 > 100 µM | MDA-N > 100 µM | LOX IMVI > 100 µM | PC-3 > 100 µM | IGROV-1 > 100 µM | HCC 2998 > 100 µM | MCF7 > 100 µM | NCI-H23 > 100 µM
